EP4417602A1, “SUBSTITUTED PYRAZOLE CARBOXAMIDES, SALTS THEREOF AND THEIR USE AS HERBICIDALLY ACTIVE SUBSTANCES” (Bayer AG, priority 2023, dated 2024)

Key:
MATIN [1] = assay: B. Herbicidal post-emergence action on harmful plants (Tables B); assay type: in vivo, Matricaria inodora
Method in brief: (§1)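 Activity was scored visually as % damage (100% = dead, 0% = like untreated) about 3 weeks after treatment. Plants at the one-leaf stage, 2-3 weeks old, were sprayed with WP/EC formulations plus 0.5% additive (600 L/ha water, up to 1280 g/ha). Plants were grown in sandy loam in a greenhouse.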

STEME [2] = assay: A. Herbicidal pre-emergence action on harmful plants (Tables A); assay type: in vivo, Stellaria media; conditions: visual grading after ca. 3 weeks vs untreated controls, 100% = plants have died off, 0% = as control plants
Method in brief: (§2)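 Greenhouse pre-emergence test: compound applied to the soil surface at 1280 g/ha or below, and herbicidal effect rated visually at ca. 3 weeks on a 0–100% scale against untreated plants.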

VERPE [3] = assay: B. Herbicidal post-emergence action on harmful plants (Tables B); assay type: in vivo, Veronica persica
Method in brief: as §1

ABUTH = assay: as above; assay type: in vivo, Abutilon theophrasti
Method in brief: as §1

SETVI [4] = assay: A. Herbicidal pre-emergence action on harmful plants (Tables A); assay type: in vivo, Setaria viridis; conditions: visual grading after ca. 3 weeks vs untreated controls, 100% = plants have died off, 0% = as control plants
Method in brief: as §2

ECHCG [5] = assay: B. Herbicidal post-emergence action on harmful plants (Tables B); assay type: in vivo, Echinochloa crus-galli
Method in brief: as §1

STEME [6] = assay: as above; assay type: in vivo, Stellaria media; conditions: application rate 1280 g/ha; Table B6
Procedure: (§3) Seeds of mono- and dicotyledonous weed plants were placed in plastic pots in sandy loam soil (doubly sown with in each case one species of mono- or dicotyledonous weed plants per pot), covered with soil and cultivated in a greenhouse under controlled growth conditions. 2 to 3 weeks after sowing, the test plants were treated at the one-leaf stage. The compounds of the invention, formulated in the form of wettable powders (WP) or as emulsion concentrates (EC), were applied onto the green parts of the plants as aqueous suspension or emulsion with addition of 0.5% additive at a water application rate of 600 liters per hectare (converted). After the test plants had been kept in the greenhouse under optimum growth conditions for about 3 weeks, the activity of the preparations was rated visually in comparison to untreated controls. For example, 100% activity = the plants have died, 0% activity = like control plants. Tables B1 to B12, below, show the effects of selected compounds of the general formula (I) according to table 1 on various harmful plants and an application rate corresponding to 1280 g/ha or below obtained by the experimental procedure mentioned above. Table B1a: post-emergence activity at 1280g/ha against ABUTH in %

DIGSA [7] = assay: A. Herbicidal pre-emergence action on harmful plants (Tables A); assay type: in vivo, Digitaria sanguinalis
Method in brief: as §2

SETVI [8] = assay: B. Herbicidal post-emergence action on harmful plants (Tables B); assay type: in vivo, Setaria viridis; conditions: application rate 1280 g/ha; Table B5
Procedure: as §3

VERPE [9] = assay: A. Herbicidal pre-emergence action on harmful plants (Tables A); assay type: in vivo, Veronica persica; conditions: application rate 1280 g/ha; Table A11
Source text: Seeds of mono- and dicotyledonous weed plants were sown in plastic pots (double sowings with one species of mono- and one species of dicotyledonous weed plants per pot), in sandy loam, and covered with soil. The compounds according to the invention, formulated in the form of wettable powders (WP) or as emulsifiable concentrates (EC), were applied to the surface of the covering soil as aqueous suspension or emulsion, with the addition of 0.5% of an additive, at an application rate of 6001 of water per hectare (converted). Following treatment, the pots were placed in a greenhouse and kept under optimum growth conditions for the test plants. The visual grading of the damage to the test plants was carried out after ca. 3 weeks in comparison to untreated controls (herbicidal effect in percent (%): 100% effect = plants have died off, 0% effect = as control plants). Tables A1 to A12, below, show the effects of selected compounds of the general formula (I) according to table 1 on various harmful plants and an application rate corresponding to 1280 g/ha or below obtained by the experimental procedure mentioned above. Table A1: pre-emergence activity at 1280g/ha against ABUTH in %

POAAN [10] = assay: as above; assay type: in vivo, Poa annua
Method in brief: as §2

MATIN [11] = assay: as above; assay type: in vivo, Matricaria inodora; conditions: visual grading after ca. 3 weeks vs untreated controls, 100% = plants have died off, 0% = as control plants
Method in brief: as §2

LOLRI = assay: as above; assay type: in vivo, Lolium rigidum; conditions: visual grading after ca. 3 weeks vs untreated controls, 100% = plants have died off, 0% = as control plants
Method in brief: as §2

AMARE = assay: as above; assay type: in vivo, Amaranthus retroflexus
Method in brief: as §2

ALOMY = assay: as above; assay type: in vivo, Alopecurus myosuroides
Method in brief: as §2

DIGSA [12] = assay: B. Herbicidal post-emergence action on harmful plants (Tables B); assay type: in vivo, Digitaria sanguinalis; conditions: application rate 1280 g/ha; Table B12a
Method in brief: as §1

POAAN [13] = assay: as above; assay type: in vivo, Poa annua
Method in brief: as §1

ECHCG [14] = assay: A. Herbicidal pre-emergence action on harmful plants (Tables A); assay type: in vivo, Echinochloa crus-galli; conditions: visual grading after ca. 3 weeks vs untreated controls, 100% = plants have died off, 0% = as control plants
Method in brief: as §2

[15] = application rate 1280 g/ha, visual grading after ca. 3 weeks vs untreated controls, 100% = plants have died off, 0% = as control plants

In the case of `COCc1nn(C)cc1C(=O)N1CCCC1Cc1c(F)cccc1F` (single isomer, unassigned) [Example I-082], the “post-emergence activity against MATIN” value (MATIN [1]; application rate 320 g/ha, Table B4b) was 90%, the “post-emergence activity against MATIN” value (MATIN [1]; application rate 1280 g/ha, Table B4a) was 90% and the “pre-emergence activity against STEME” value (STEME [2]; application rate 80 g/ha) was 90%. The “pre-emergence activity against STEME” value (STEME [2]; application rate 320 g/ha) was 90%, the “pre-emergence activity against STEME” value (STEME [2]; application rate 1280 g/ha) was 90% and the “post-emergence activity against VERPE” value (VERPE [3]; application rate 320 g/ha, Table B11b) was 90%. The “post-emergence activity against VERPE” value (VERPE [3]; application rate 1280 g/ha, Table B11a) was 90%, the “post-emergence activity against ABUTH” value (ABUTH; application rate 320 g/ha, treated at the one-leaf stage, rated visually after about 3 weeks vs untreated controls, 100% = the plants have died, 0% = like control plants) was 90% and the “post-emergence activity against ABUTH” value (ABUTH; application rate 1280 g/ha, Table B1a) was 90%. For the same molecule, the “pre-emergence activity against SETVI” value (SETVI [4]; application rate 80 g/ha) was 90%, the “pre-emergence activity against SETVI” value (SETVI [4]; application rate 320 g/ha) was 100% and the “pre-emergence activity against SETVI” value (SETVI [4]; application rate 1280 g/ha) was 100%. The “post-emergence activity against ECHCG” value (ECHCG [5]; application rate 320 g/ha, Table B2b) was 90%, the “post-emergence activity against ECHCG” value (ECHCG [5]; application rate 1280 g/ha, Table B2a) was 90% and the “post-emergence activity against STEME” value (STEME [6]) was 90%. For the same molecule, the “pre-emergence activity against DIGSA” value (DIGSA [7]; application rate 80 g/ha, Table A12c) was 100%, the “pre-emergence activity against DIGSA” value (DIGSA [7]; application rate 320 g/ha, Table A12b) was 100% and the “pre-emergence activity against DIGSA” value (DIGSA [7]; application rate 1280 g/ha, Table A12a) was 100%. The “post-emergence activity against SETVI” value (SETVI [8]) was 90%, the “pre-emergence activity against VERPE” value (VERPE [9]) was 90% and the “pre-emergence activity against POAAN” value (POAAN [10]; application rate 80 g/ha, Table A7c) was 100%. For the same molecule, the “pre-emergence activity against POAAN” value (POAAN [10]; application rate 320 g/ha, Table A7b) was 100%, the “pre-emergence activity against POAAN” value (POAAN [10]; [15]) was 100% and the “pre-emergence activity against MATIN” value (MATIN [11]; application rate 80 g/ha) was 90%. For the same molecule, the “pre-emergence activity against MATIN” value (MATIN [11]; application rate 320 g/ha) was 90%, the “pre-emergence activity against MATIN” value (MATIN [11]; application rate 1280 g/ha) was 90% and the “pre-emergence activity against LOLRI” value (LOLRI; application rate 80 g/ha) was 90%. The “pre-emergence activity against LOLRI” value (LOLRI; application rate 320 g/ha) was 100%, the “pre-emergence activity against LOLRI” value (LOLRI; application rate 1280 g/ha) was 100% and the “pre-emergence activity against AMARE” value (AMARE; application rate 320 g/ha, Table A8b) was 90%. For the same molecule, the “pre-emergence activity against AMARE” value (AMARE; [15]) was 90%, the “pre-emergence activity against ALOMY” value (ALOMY; application rate 320 g/ha, Table A9b) was 90% and the “pre-emergence activity against ALOMY” value (ALOMY; application rate 1280 g/ha, Table A9a) was 90%. The “post-emergence activity against DIGSA” value (DIGSA [12]) was 90%, the “post-emergence activity against POAAN” value (POAAN [13]; application rate 80 g/ha, Table B7c) was 90% and the “post-emergence activity against POAAN” value (POAAN [13]; application rate 320 g/ha, Table B7b) was 90%. The “post-emergence activity against POAAN” value (POAAN [13]; application rate 1280 g/ha, Table B7a) was 100%, the “pre-emergence activity against ECHCG” value (ECHCG [14]; application rate 80 g/ha) was 90% and the “pre-emergence activity against ECHCG” value (ECHCG [14]; application rate 320 g/ha) was 90%. For the same molecule, the “pre-emergence activity against ECHCG” value (ECHCG [14]; application rate 1280 g/ha) was 100%.
